Consider 2 compounds from patent US20080305059A1, “Skin lightening compositions and methods” (priority 2007, published 2008).

For data set [1], the system named is skin of the infrascapular regions of the back. Put plainly: Skin sensitivity: repeat occlusive patch test (nine inductive patchings plus challenge). Type of data set: in vivo, human. The conditions noted are these: 5% dilution in corn oil, 111 subjects. As to the method: Given the known sensitivity issues associated with commercial grade hexylresorcinol, evaluation of the skin sensitivity to the purified hexylresorcinol was also evaluated. Skin sensitivity was evaluated following the method cited in the reference Appraisal of the Safety of Chemicals in Food, Drugs and Cosmetics, published by The Association of Food and Drug Officials of The United States. The specific method employed used nine inductive patchings, not the ten cited in the reference, under occlusive patch conditions. Samples were prepared for evaluation by diluting the highly pure hexylresorcinol in corn oil to a 5% concentration, with dilutions freshly prepared on each application day. 0.2 ml of the diluted test material was dispensed onto occlusive, hypoallergenic patches and the treated patches applied directly to the skin of the infrascapular regions of the back, to the right or left of the midline of each subject: one hundred and eleven subjects were employed. […] If evidence of a reaction was found, the area of edema and/or erythema was then measured and recorded: edema being estimated by an evaluation of the skin with respect to the contour of the unaffected normal skin. […] The challenge or retest sites were monitored and scored 24 and 48 hours after application.

Data set [2] relates to skin color of forearm test sites. Put plainly: Skin lightening efficacy on forearms, chromometric measurement of L value and ITA degree. Type of data set: in vivo, human. The conditions noted are these: for ΔITA Degrees / ΔL Value: applied twice a day to forearm, 15 individuals, delta = percent change from baseline; for ΔITA Degrees / ΔL Value / adverse effects: 0.5% hexylresorcinol or 2% hydroquinone composition; for adverse effects: twice a day for eight weeks on forearms. As to the method:
The composition was prepared by mixing the components of Phase A-1 until a substantially homogenous mixture was obtained and then dispersing that mixture in Phase A-2 with moderate agitation. The mixture was mixed until a homogeneous clear dispersion was obtained. Then, the components of Phase B were combined, mixed and heated to 75° C. and then added to the Phase A-1/A-2 mixture. The so formed mixture was homogenized for 2-3 minutes to obtain a substantially uniform composition. Phase C was added and mixed until uniform. After cooling down to 50° C., Phases D, E and F in the listed order were added and mixed and the final composition then cooled down to room temperature. […] A second skin lightening composition was prepared in the same manner with the same formulation except that the highly purified hexylresorcinol was replaced with 2% hydroquinone (Eastman) and water adjusted accordingly. Each of the skin lightening compositions was applied to different test sites on the forearms of fifteen individuals. The compositions were applied twice a day, morning and evening, for eight weeks. The test sites as well as untreated sites on each forearm were evaluated by a trained clinical evaluator for brightness of skin, evenness of skin tone, appearance of skin, dryness of skin and radiance of skin using a 10 point scale prior to the first application and following Week 4 and Week 8. Each test site was evaluated for skin color change as represented by the change in L values and ITA.degree (Individual Topology Angle—COLIPA SPF test method) as measured by chromometric measurement. ITA° was calculated using the formula: ITA°=[Arc Tangent(L*−50)/b*)]180/3.1416 Wherein, L*value—lightness and b*—color in blue-yellow axis. The results of the testing were as presented in Table 3, wherein the delta represents the percent change in skin color from the baseline coloration of the untreated skin.

Take `CCCCCCc1ccc(O)cc1O` [Hexylresorcinol, 4-Hexylresorcinol]: the “primary irritation (edema or erythema)” value in data set [1] (0.2 ml occlusive patch, nine 24 hour exposures) is “NON-PRIMARY IRRITANT”. The “sensitization after challenge patch” value in data set [1] (challenge after 10-14 day rest, scored 24 and 48 hours) is given as “NON-PRIMARY SENSITIZER”. In addition, the “change in skin color compared with the 2% hydroquinone composition” value in data set [2] (0.5% composition, eight weeks twice a day) is recorded as “comparable, statistically significant”. For the same compound, in data set [2] (Week 4), the “ΔITA Degrees” value turned out to be 27.48% and the “ΔL Value” is 3.4%. In data set [2] (Week 8), the “ΔITA Degrees” value was 37.56% and the “ΔL Value” is given as 4.67%. Further, in data set [2], the adverse effects result was “No adverse effects”.
`Oc1ccc(O)cc1` [Hydroquinone, hydroquinone, reference compound]: in data set [2] (Week 4), the “ΔITA Degrees” value is listed as 27.66% and the “ΔL Value” is reported as 3.24%. In data set [2] (Week 8), the “ΔITA Degrees” value is given as 39.38% and the “ΔL Value” turned out to be 4.27%. The adverse effects entry in data set [2] is on record as “No adverse effects”.
